In US4255519A, “Glycerol oxidase and process for the production thereof” (priority 1978, dated 1981):

test system: glycerol oxidase II; test: Substrate affinity: Michaelis constant against glycerol; assay type: biochemical, Penicillium sp. KY 868; conditions: glycerol oxidase II of the genus Penicillium
Description: *Determination of Michaelis constant is described in the following reference. H. Lineweaver and D. Burk, J. Amer. Chem. Soc., 56, 658 (1934).

| SMILES | Km [mM] |
| --- | --- |
| OCC(O)CO [Glycerol] | 8 |

test system: glycerol oxidase I; test: not given; conditions: glycerol oxidase I of Aspergillus japonicus (U.S. application Ser. No. 897,695); cited from earlier work

| SMILES | Km [mM] |
| --- | --- |
| OCC(O)CO [Glycerol] | 18.5 |

test system: glycerol oxidase II; test: Inhibitors of enzyme: activity with 1 mM inhibitor, oxygen consumption rate by Warburg's manometer; assay type: biochemical, Penicillium sp. KY 868; conditions: activity with no inhibitor defined as 100, from oxygen consumption rate
Method: Enzymes activities obtained by adding 1 mM of various inhibitors are shown in Table 1, the activity of the enzyme with no addition of the inhibitor being defined as 100. The activities are calculated from consumption rate of oxygen used in reaction measured by Warburg's manometer.

| SMILES | Relative rate (%) |
| --- | --- |
| O=[N+]([O-])[O-].[Ag+] [AgNO3] | 0 |
| CC(=O)[O-].CC(=O)[O-].[Pb+2] [Pb(CH3 COO)2] | 26.3 |
| NO [NH2 OH] | 0 |
| c1ccc(-c2ccccn2)nc1 [α,α'-Dipyridyl] | 75.7 |
| O=S(=O)([O-])[O-].[Fe+2] [FeSO4] | 0 |
| Cc1ccc2ccc3ccc(C)nc3c2n1 [Neocuproine] | 80.3 |
| [Cl][Hg][Cl] [HgCl2] | 79.0 |
| c1cnc2c(c1)ccc1cccnc12 [o-Phenanthroline] | 65.5 |
| O=C(O)c1cc[c]([Hg][Cl])cc1 [p-Chloromercuri benzoate] | 81.4 |
| O=C(O)CN(CCN(CC(=O)O)CC(=O)O)CC(=O)O [EDTA] | 82.8 |
| CCN(CC)C(=S)S [Diethyl dithiocarbamate] | 0 |
| [Cl-].[Cl-].[Zn+2] [ZnCl2] | 84.3 |

test system: glycerol oxidase I; test: not given; conditions: glycerol oxidase I of Neurospora crassa (U.S. application Ser. No. 897,695); cited from earlier work

| SMILES | Km [mM] |
| --- | --- |
| OCC(O)CO [Glycerol] | 19 |

test system: glycerol oxidase II; test: Substrate specificity, relative activity by 4-AA method; assay type: biochemical, Penicillium sp. KY 868; conditions: not given
Method: The relative activity is measured using other substrates in equimolar amounts to that of glycerol in the procedure for measuring the activity according to 4-AA method.
The relative activities on other substrates are given in Table 3, the activity on glycerol being defined as 100.
The enzyme activity is expressed by "unit." A "unit" of the enzyme activity is defined as that amount of enzyme which will decompose 1 μ mole of glycerol at 37° C. in 1 minute in the presence of oxygen. The determination of the enzyme activity is carried out as follows: glycerol is reacted with glycerol oxidase II with stirring to form hydrogen peroxide, and 4-aminoantipyrine and phenol are reacted with the resulting hydrogen peroxide in the presence of peroxidase to derive quinoneimine pigment. The optical density in the visible portion of the resulting quinoneimine pigment is measured to determine the amount of generated hydrogen peroxide, whereby the enzyme activity is determined (which will be hereinafter referred to as "4-AA method").
The reagents (1)-(6) are mixed in a test tube, and then shaken at 37° C. for 5 minutes. Then, enzyme solution is added thereto, and thus obtained mixture is made up to 3 ml with TES buffer solution. Reaction is carried out at 37° C. for 10 minutes with shaking. On the other hand, similar procedure is repeated using water in place of the test solution as a reference. The optical density of the reaction solution at 500 nm is measured, and a difference from the control is determined as ΔOD (optical density).

| SMILES | Substrate specificity (in words) |
| --- | --- |
| O=C(CO)CO [Dihydroxyacetone] | reacts specifically |
| OCC(O)CO [Glycerol] | reacts specifically |

same assay, conditions: substrate equimolar to glycerol; activity on glycerol defined as 100; 4-AA method

| SMILES | Relative activity |
| --- | --- |
| OCCCO [1,3-Propanediol] | 23 |
| CC(C)O [iso-Propyl alcohol] | 23 |
| CC(C)CO [iso-Butyl alcohol] | 14 |
| CCCO [n-Propyl alcohol] | 11 |
| CCO [Ethanol] | 11 |
| CC(O)CCO (stereo not shown) [1,3-Butanediol] | 11 |
| O=C(CO)CO [Dihydroxyacetone] | 293 |
| CCC(C)O (stereo not shown) [sec-Butyl alcohol] | 9 |
| OCCCCO [1,4-Butanediol] | 11 |
| CC(O)C(C)O (stereo not shown) [2,3-Butanediol] | 16 |
| CC(O)CO (stereo not shown) [1,2-Propanediol] | 11 |
| O=P(O)(O)OCC(O)CO (stereo not shown) [Glycerol-3-phosphoric acid] | 12 |
| OCC(O)CO [Glycerol] | 100 |
| CCCCO [n-Butyl alcohol] | 7 |
